Assay results taken from US8937084B2, “Nitrogen containing morphinan derivatives and the use thereof” (Purdue Pharma L.P., priority 2012, dated 2015).

Tests used:
[1] = molecular target: κ opioid receptor (Homo sapiens (Human), UniProt P41145); experiment: κ-opioid receptor [35S]GTPγS functional assay, U-2 OS cells; format: biochemical; conditions: for EC50: GTPγS; for Emax: relative to U69,593
Protocol: κ-Opioid Receptor Functional Assay Procedures: Functional [^35S]GTPγS binding assays were conducted as follows. κ opioid receptor membrane solution was prepared by sequentially adding final concentrations of 0.026 μg/μl κ membrane protein (in-house), 10 μg/mL saponin, 3 μM GDP and 0.20 nM [^35S]GTPγS to binding buffer (100 mM NaCl, 10 mM MgCl2, 20 mM HEPES, pH 7.4) on ice. The prepared membrane solution (190 μl/well) was transferred to 96-shallow well polypropylene plates containing 10 μl of 20× concentrated stock solutions of agonist prepared in DMSO. Plates were incubated for 30 min at a temperature of about 25° C. with shaking. Reactions were terminated by rapid filtration onto 96-well Unifilter GF/B filter plates (Perkin Elmer, Shelton, Conn.) using a 96-well tissue harvester (Packard) and followed by three filtration washes with 200 μl ice-cold binding buffer (10 mM NaH2PO4, 10 mM Na2HPO4, pH 7.4). Filter plates were subsequently dried at 50° C. for 2-3 hours. Fifty μl/well scintillation cocktail (Perkin Elmer, Shelton, Conn.) was added and plates were counted in a Packard Top-Count for 1 min/well.
κ-Oploid Receptor Functional Data: κ GTP EC50 is the concentration of a compound providing 50% of the maximal response for the compound at a K receptor.
κ GTP Emax (%) is the maximal effect elicited by a compound relative to the effect elicited by U69,593.
The following TABLE 3 provides results on the activity response of certain Compounds of the Invention at the μ- and κ-opioid receptors determined as described above using U-2 OS cells.

[2] = molecular target: μ-opioid receptor (Homo sapiens (Human), UniProt P35372); experiment: μ-opioid receptor radioligand dose-displacement binding assay ([3H]-diprenorphine)
Protocol: μ-Opioid Receptor Binding Assay Procedures: Radioligand dose-displacement binding assays for μ-opioid receptors used 0.3 nM [^3H]-diprenorphine (Perkin Elmer, Shelton, Conn.), with […] membrane protein/well in a final volume of 500 μl binding buffer (10 mM MgCl2, 1 mM EDTA, 5% DMSO, 50 mM HEPES, pH 7.4). Reactions were carried out in the absence or presence of increasing concentrations of unlabeled naloxone. All reactions were conducted in 96-deep well polypropylene plates for 2 hours at room temperature. Binding reactions were terminated by rapid filtration onto 96-well Unifilter GF/C filter plates (Perkin Elmer, Shelton, Conn.), presoaked in 0.5% polyethylenimine using a 96-well tissue harvester (Perkin Elmer, Shelton, Conn.) followed by performing three filtration washes with 500 μl of ice-cold binding buffer. Filter plates were subsequently dried at 50° C. for 2-3 hours. BetaScint scintillation cocktail (Perkin Elmer, Shelton, Conn.) was added (50 μl/well), and plates were counted using a Packard Top-Count for 1 min/well. The data were analyzed using the one-site competition curve fitting functions in GraphPad PRISM™ v. 3.0 or higher (San Diego, Calif.), or an in-house function for one-site competition curve-fitting.
(§1) In TABLE 1, binding affinity of certain Compounds of the Invention to the μ-, δ- and κ-opioid receptors was determined as described above.

[3] = molecular target: T1, δ opioid receptor (Homo sapiens (Human), UniProt P41143); experiment: δ-opioid receptor [35S]GTPγS functional assay, HEK-293 or CHO cells; format: biochemical; conditions: for EC50: GTPγS; for Emax: relative to met-enkephalin
T1 sequence (P41143 whole entry, looked up): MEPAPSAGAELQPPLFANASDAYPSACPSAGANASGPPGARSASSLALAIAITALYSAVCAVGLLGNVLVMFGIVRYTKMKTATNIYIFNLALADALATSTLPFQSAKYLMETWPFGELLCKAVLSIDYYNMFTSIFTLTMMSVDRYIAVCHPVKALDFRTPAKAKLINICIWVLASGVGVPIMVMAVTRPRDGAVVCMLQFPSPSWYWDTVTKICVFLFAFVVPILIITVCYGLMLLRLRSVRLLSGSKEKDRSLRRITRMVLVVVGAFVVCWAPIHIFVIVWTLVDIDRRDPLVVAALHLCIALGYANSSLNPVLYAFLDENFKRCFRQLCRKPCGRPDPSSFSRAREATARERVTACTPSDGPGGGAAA
Protocol: δ-Opioid Receptor Functional Assay Procedures: Functional [^35S]GTPγS binding assays were conducted as follows. 5 opioid receptor membrane solution was prepared by sequentially adding final concentrations of […] δ membrane protein (Perkin Elmer, Shelton, Conn.), 10 μg/mL saponin, 3 µM GDP and 0.20 nM [^35S]GTPγS to binding buffer (100 mM NaCl, 10 mM MgCl2, 20 mM HEPES, pH 7.4) on ice. The prepared membrane solution ([…]) was transferred to 96-shallow well polypropylene plates containing 10 μl of 20× concentrated stock solutions of agonist prepared in DMSO. Plates were incubated for 30 min at a temperature of about 25° C. with shaking. Reactions were terminated by rapid filtration onto 96-well Unifilter GF/B filter plates (Perkin Elmer, Shelton, Conn.) using a 96-well tissue harvester (Packard) and followed by three filtration washes with 200 μl ice-cold binding buffer (10 mM NaH2PO4, 10 mM Na2HPO4, pH 7.4). Filter plates were subsequently dried at 50° C. for 1-2 hours. Fifty μl/well scintillation cocktail (Perkin Elmer, Shelton, Conn.) was added and plates were counted in a Packard Top-count for 1 min/well.
δ-Oploid Receptor Functional Data: δ GTP EC50 is the concentration of a compound providing 50% of the maximal response for the compound at a δ receptor.
δ GTP Emax (%) is the maximal effect elicited by a compound relative to the effect elicited by met-enkephalin.
In TABLE 2, activity response of certain Compounds of the Invention to the μ-, δ- and κ-opioid receptors was determined as described above for functional assays using HEK-293 or CHO cells.

[4] = molecular target: T1, δ opioid receptor; experiment: δ-opioid receptor radioligand dose-displacement binding assay ([3H]-Naltrindole)
Protocol: δ-Oploid Receptor Binding Assay Procedures: δ-Opioid Receptor Binding Assay Procedures were conducted as follows. Radioligand dose-displacement assays used 0.3 nM [^3H]-Naltrindole (Perkin Elmer, Shelton, Conn.; 33.0 Ci/mmole) with 5 μg membrane protein (Perkin Elmer, Shelton, Conn.) in a final volume of 500 μl binding buffer (5 mM MgCl2, 5% DMSO, 50 mM Trizma base, pH 7.4). Non-specific binding was determined in the presence of 25 μM unlabeled naloxone. All reactions were performed in 96-deep well polypropylene plates for 1 hour at a temperature of about 25° C. Binding reactions were terminated by rapid filtration onto 96-well Unifilter GF/C filter plates (Perkin Elmer, Shelton, Conn.) presoaked in 0.5% polyethylenimine (Sigma). Harvesting was performed using a 96-well tissue harvester (Perkin Elmer, Shelton, Conn.) followed by five filtration washes with 500 μl ice-cold binding buffer. Filter plates were subsequently dried at 50° C. for 1-2 hours. Fifty μl/well scintillation cocktail (Perkin Elmer, Shelton, Conn.) was added and plates were counted in a Packard Top-Count for 1 min/well.
as §1

SMILES	EC50 [1]	Emax [1]	Ki [2]	EC50 [3]	Emax [3]	Ki [4]
NC(=O)CN1C[C@H]2[C@H]3Cc4ccc(O)cc4[C@@]2(CCN3CC2CC2)CC1=O [Compound 4, 2-((4aS,5R,10bS)— 13-(cyclopropylmethyl)-9-hydroxy-2-oxo-4,4-a,5,6-tetrahydro-1H-5,10b-(epiminoethano)benzo[f]isoquinolin-3(2H)-yl)acetamide]	1.65 ± 0.054 nM	104 ± 2.6%	24.4 ± 7.61 nM	9.06 ± 0.94 nM	109 ± 3.28%	49 ± 17.7 nM
O=C1C[C@]23CCN(CC4CC4)[C@H](Cc4ccc(O)cc42)[C@@H]3CN1Cc1ccc(O)cc1 [Compound 5, (4aS,5R,10bS)-13-(cyclopropylmethyl)-9-hydroxy-3-(4-hydroxybenzyl)-4,4-a,5,6-tetrahydro-1H-5,10b-(epiminoethano)benzo[f]isoquinolin-2(3H)-one]	–	–	12.8 ± 1.55 nM	4.39 ± 0.93 nM	71 ± 6.08%	22.9 ± 8.53 nM
O=C1C[C@]23CCN(CC4CC4)[C@H](Cc4ccc(O)cc42)[C@@H]3CN1 [Compound 7, (4aS,5R,10bS)-13-(cyclopropylmethyl)-9-hydroxy-4,4-a,5,6-tetrahydro-1H-5,10b-(epiminoethano)benzo[f]isoquinolin-2(3H)-one]	0.21 ± 0.014 nM	106 ± 1.53%	5.61 ± 0.44 nM	8.7 ± 1.25 nM	85.7 ± 6.89%	15 ± 3.45 nM
O=C(O)CN1C[C@H]2[C@H]3Cc4ccc(O)cc4[C@@]2(CCN3CC2CC2)CC1=O [Compound 8, 2-((4aS,5R,10bS)-13-(cyclopropylmethyl)-9-hydroxy-2-oxo-4,4-a,5,6-tetrahydro-1H-5,10b-(epiminoethano)benzo[f]isoquinolin-3(2H)-yl)acetic acid]	–	–	21.2 ± 6.62 nM	2.41 ± 0.29 nM	110 ± 3.11%	82.2 ± 30.1 nM
Oc1ccc2c(c1)[C@@]13CCNC[C@H]1[C@@H](C2)N(CC1CC1)CC3 [Compound 13, (4aS,5R,10bR)-13-(cyclopropylmethyl)-2,3,4,4a,5,6-hexahydro-1H-5,10b-(epiminoethano)benzo[f]isoquinolin-9-ol]	–	–	50.4 ± 16.7 nM	36.5 ± 11.1 nM	83.3 ± 1.45%	174 ± 33.7 nM
